According to paper PMC8402032, “Unsymmetric Cisplatin-Based Pt(IV) Conjugates Containing a PARP-1 Inhibitor Pharmacophore Tested on Malignant Pleural Mesothelioma Cell Lines” (Molecules, 2021):

Legend:
MSTO-211H cells = experiment: γH2AX foci immunofluorescence; assay type: cell-based, human; conditions: 5 µM, 72 h
Method: This is in tune with the activation by reduction mechanism (Scheme 1) that is able to generate CDDP in the cells.
MSTO-211H cells were plated on slides and treated for 72 h with diluent or 5 μM complex 6. Slides were then fixed for 20 min with 4% paraformaldehyde (Sigma-Aldrich), rinsed with PBS, and then the cells were permeabilized for 5 min in 0.1% Triton X-100, followed by three 5 min PBS washes. Slides were treated thrice for 10 min in a blocking solution of 5% bovine serum albumin (BSA) (Invitrogen). Mouse anti-γH2AX antibody (Millipore) was added (1:100 in 1% BSA) and incubated for 1 h in a dark, humidified environment at room temperature. Slides were then exposed to a secondary goat anti-mouse antibody, FITC (1:100 in PBS) and incubated for 1 h in the dark, humidified environment at room temperature. Slides were rinsed thrice in PBS, mounted, and cell imaged with a Leica fluorescence microscope.
Figure 4 (A) Representative Western blot showing poly(ADP-ribose) (PAR) and PARP-1 expression following 72 h MSTO-211H cell treatment with diluent (Ctrl) or 5 µM concentrations of cisplatin (CDDP), 6, CDDP + 3-ABA combination (1:1 ratio), and 3-ABA alone. HSC70 protein was used as loading control. (B) Immunocytochemistry was used to capture representative γH2AX focus images following 72 h MSTO-211H cell treatment with diluent (Ctrl) or 5 µM of complex 6.

[1] = test system: REN (epithelioid) malignant pleural mesothelioma cells; experiment: Cell viability assay (Trypan blue dye exclusion), REN; assay type: cell-based, human; conditions: 72 h treatment
Method: (§1) Complexes 6–9 were tested on a panel of human MPM cell lines together with CDDP and SAA1, added for comparison (Table 1). The half-maximal inhibitory concentration, IC50, was determined on MSTO-211H (biphasic phenotype), REN (epithelioid), BR95 (epithelioid), and MM98 (sarcomatoid) cancer cell lines to identify the most promising Pt(IV) conjugate to be further investigated. To determine the number of viable cells, the use of the dye exclusion assay was preferred to the colorimetric assay because of the heterogeneity in the energy metabolism between the different MPM cell lines. This may justify minor differences with respect to the previously published IC50 for CDDP [40].
Cells were seeded at a density of 10 × 10^4 cells per well in 6-well plates in RPMI medium supplemented with 10% fetal bovine serum (FBS), 100 μg mL^−1 streptomycin, and 10 μg mL^−1 penicillin and incubated overnight at 37 °C in a humidified environment containing 5% CO2 to allow adherence. Cisplatin was dissolved in 0.9% w/v aqueous NaCl brought to pH = 3 with HCl (final stock concentration 1 mM). The Pt(IV) complexes were dissolved in DMSO (final stock concentration 5 mM); the resulting solutions were microfiltered (0.45 μm) and their Pt content was checked by ICP-MS (see Section 3.5.2). These mother solutions were diluted in complete medium to the required concentration range.
(§2) Following 72 h of treatment with the diluent of the compound (Ctrl) or different doses of the Pt compounds, cells were trypsinized and stained with Trypan blue. The number of cells considered viable (unstained cells) was counted in a Bürker haemocytometer within 5 min after staining.

human MPM cell lines = experiment: Antiproliferative activity on the panel of human MPM cell lines (summary); assay type: cell-based
Method: as §1
Cells were seeded at a density of 10 × 10^4 cells per well in 6-well plates in RPMI medium supplemented with 10% fetal bovine serum (FBS), 100 μg mL^−1 streptomycin, and 10 μg mL^−1 penicillin and incubated overnight at 37 °C in a humidified environment containing 5% CO2 to allow adherence. Cisplatin was dissolved in 0.9% w/v aqueous NaCl brought to pH = 3 with HCl (final stock concentration 1 mM). […]
as §2

PARP-1 = target: T1, PARP-1 (Homo sapiens, UniProt P09874); experiment: Cellular thermal shift assay (CETSA) for in-cell PARP-1 target engagement; assay type: binding; conditions: MSTO-211H intact cells, 50 µM, 15 min; 52, 56 and 60 °C
T1 construct: endogenous in cells; host or cells: MSTO-211H cells
From the text: In order to confirm that PARP-1 is the direct target of 6, the cellular thermal shift assay (CETSA®) was employed. This assay is based on the biophysical principle of ligand-induced thermal stabilization of target proteins. Indeed, ligand-bound proteins are stabilized by their interacting partner and melt at a higher temperature with respect to the native protein. The test involves the drug treatment of the cellular system of choice, the heating of the cell to different temperatures, and the quantification of the presence of target protein in the soluble fraction by Western blotting to validate and quantify target engagement of drugs in cells and tissues.
Multiple aliquots of MSTO-211H intact cells, previously incubated with the diluent, 3-ABA or 6, were heated to different temperatures ranging from 48 °C to 60 °C. After lysis, the soluble fractions were analyzed by SDS-PAGE followed by Western blot. In Figure 6, the stabilities of 6 and 3-ABA, at 52, 56, and 60 °C, are compared.
For the intact cell experiments, MSTO-211H cells were treated with the diluent of the compound (Ctrl) or 6 (50 µM) in complete medium for 15 min at 37 °C, in a humidified environment containing 5% CO2. […] The supernatants were then analyzed by SDS-PAGE followed by Western blot analysis as previously described. […]

T1 sequence (P09874 whole entry): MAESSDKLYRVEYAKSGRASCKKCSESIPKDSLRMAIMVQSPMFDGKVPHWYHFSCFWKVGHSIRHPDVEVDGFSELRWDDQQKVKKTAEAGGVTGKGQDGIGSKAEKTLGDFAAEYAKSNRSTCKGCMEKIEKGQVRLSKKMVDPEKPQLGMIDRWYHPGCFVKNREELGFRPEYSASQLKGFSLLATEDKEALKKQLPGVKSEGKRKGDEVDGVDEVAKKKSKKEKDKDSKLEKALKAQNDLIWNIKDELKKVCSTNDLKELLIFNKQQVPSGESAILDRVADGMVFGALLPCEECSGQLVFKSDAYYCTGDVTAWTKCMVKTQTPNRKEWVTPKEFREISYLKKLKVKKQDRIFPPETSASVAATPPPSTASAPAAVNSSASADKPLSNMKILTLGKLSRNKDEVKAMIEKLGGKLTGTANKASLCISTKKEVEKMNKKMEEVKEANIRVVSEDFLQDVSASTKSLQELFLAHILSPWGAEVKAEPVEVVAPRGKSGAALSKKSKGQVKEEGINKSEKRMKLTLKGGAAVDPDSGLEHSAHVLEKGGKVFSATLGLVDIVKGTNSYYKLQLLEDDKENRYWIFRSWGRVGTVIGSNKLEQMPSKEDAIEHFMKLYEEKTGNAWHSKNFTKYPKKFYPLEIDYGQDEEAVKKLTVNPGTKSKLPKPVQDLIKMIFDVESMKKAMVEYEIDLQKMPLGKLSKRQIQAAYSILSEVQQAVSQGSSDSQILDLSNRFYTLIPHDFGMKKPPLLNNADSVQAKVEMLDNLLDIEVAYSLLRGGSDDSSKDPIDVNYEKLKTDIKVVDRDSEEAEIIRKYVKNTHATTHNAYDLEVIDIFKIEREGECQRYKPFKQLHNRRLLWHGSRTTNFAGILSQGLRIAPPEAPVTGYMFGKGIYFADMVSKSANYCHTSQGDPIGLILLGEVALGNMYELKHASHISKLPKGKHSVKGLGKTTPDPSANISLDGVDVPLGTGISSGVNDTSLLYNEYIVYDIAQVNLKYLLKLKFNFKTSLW

CC(=O)[O][Pt]([NH2])([NH2])([Cl])([Cl])[O]C(=O)CCNC(=O)c1cccc(NC(=O)OCC2c3ccccc3-c3ccccc32)c1 [Compound 6, (OC-6-44)-Acetato[3-(3-(fmoc-amino)-benzamido)-propanoato]-diammine-dichlorido-platinum(IV)]
DNA damage (γH2AX foci) (MSTO-211H cells): increased number of γH2AX foci | ratio IC50 (cisplatin)/IC50 (Pt(IV) complex), REN [1]: 1.9 | IC50 ([1]; mean ± sd): 1590 ± 70 nM | ratio between the IC50 of CDDP and the IC50 of the Pt(IV) complex, all cell lines (human MPM cell lines): around 2 | thermal stability of PARP-1 protein levels (PARP-1): more stable to heating as compared with the control and 3-ABA groups
